# Results taken from ChEMBL document CHEMBL3351979, “Total Synthesis and Biological Studies of TMC-205 and Analogues as Anticancer Agents and Activators of SV40 Promoter” (ACS Med Chem Lett, 2014).
# Active and inactive are the calls of the source. The rule behind the calls is not given here.
# What was measured:
# [1] = Antiproliferative activity against human HCT116 cells assessed as growth inhibition after 72 hrs by MTS assay; assay type: functional; conditions: HCT-116, 72 h
# HeLa [2] = assay: Induction of SV40 promoter-mediated luciferase gene expression in human HeLa cells at 0.01 to 100 uM after 24 hrs by luminescence assay; assay type: cell-based; conditions: Betapolyomavirus macacae
# HeLa [3] = assay: Induction of SV40 promoter-mediated luciferase gene expression in human HeLa cells co-expressing SV40 enhancer at 0.01 to 100 uM after 24 hrs by luminescence assay; assay type: cell-based; conditions: Betapolyomavirus macacae
# HeLa [4] = assay: Growth inhibition of human HeLa cells at 0.01 to 100 uM after 24 hrs; assay type: cell-based
# [5] = Stability of the compound by HPLC analysis; assay type: physicochemical
# [6] = target: T1, Luciferin 4-monooxygenase (Luciola lateralis) (UniProt Q01158); assay: Inhibition of recombinant firefly luciferase at 0.0001 to 100 uM by […] in presence of varying concentration of D-luciferin; conditions: Aquatica lateralis
# T1 sequence (whole entry): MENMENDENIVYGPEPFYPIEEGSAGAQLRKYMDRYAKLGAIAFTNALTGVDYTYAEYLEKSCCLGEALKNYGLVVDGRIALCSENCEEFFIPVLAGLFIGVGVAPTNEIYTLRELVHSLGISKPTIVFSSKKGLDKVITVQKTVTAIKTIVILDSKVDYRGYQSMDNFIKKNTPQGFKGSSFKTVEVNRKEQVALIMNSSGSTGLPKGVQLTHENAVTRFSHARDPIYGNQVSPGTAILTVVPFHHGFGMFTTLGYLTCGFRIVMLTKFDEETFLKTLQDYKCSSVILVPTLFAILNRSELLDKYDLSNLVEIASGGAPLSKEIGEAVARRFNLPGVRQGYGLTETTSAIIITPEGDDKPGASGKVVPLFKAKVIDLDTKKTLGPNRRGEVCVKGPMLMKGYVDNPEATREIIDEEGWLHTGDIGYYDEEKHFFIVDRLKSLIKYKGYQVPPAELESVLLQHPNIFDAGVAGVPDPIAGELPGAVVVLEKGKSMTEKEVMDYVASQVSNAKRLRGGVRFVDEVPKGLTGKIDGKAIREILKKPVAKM
# [7] = target: T1, Luciferin 4-monooxygenase (Luciola lateralis); assay: Inhibition of recombinant firefly luciferase at 0.0001 to 100 uM by […] in presence of varying concentration of ATP; conditions: Aquatica lateralis
# HeLa [8] = assay: Induction of SV40 promoter-mediated luciferase gene expression in human HeLa cells after 24 hrs by RT-PCR analysis; assay type: cell-based; conditions: Betapolyomavirus macacae
# HeLa [9] = assay: Induction of SV40 promoter-mediated luciferase gene expression in human HeLa cells at 10 to 100 uM after 24 hrs by RT-PCR analysis; assay type: cell-based; conditions: Betapolyomavirus macacae
compound,measurement,setting,value
C=C(C)/C=C/c1ccc2cc[nH]c2c1,GI50,[1],147 µM
CC(C)(O)/C=C/c1ccc2c(C(=O)C(F)(F)F)c[nH]c2c1,GI50,[1],> 500 µM
C=C(C)/C=C/c1ccc2c(C(=O)O)c[nH]c2c1,GI50,[1],68 µM
same,Activity,HeLa [2],inactive
same,Activity,HeLa [3],Active
same,Activity,HeLa [4],Non-toxic
CC(O)/C=C/c1ccc2c(C(=O)C(F)(F)F)c[nH]c2c1 (stereo not given),GI50,[1],8 µM
same,Activity,HeLa [2],inactive
same,Activity,HeLa [3],Active
same,Activity,HeLa [4],Non-toxic
CC(C)CCc1ccc2c(C(=O)O)c[nH]c2c1,GI50,[1],> 500 µM
C=C(C)/C=C/c1ccc2c(C(=O)C(F)(F)F)c[nH]c2c1,GI50,[1],39 µM
same,Stability,[5],Stable
same,Activity,HeLa [2],inactive
same,Activity,HeLa [3],Active
same,Activity,HeLa [4],Non-toxic
same,inhibition,[6],inactive
same,inhibition,[7],Active
same,Activity,HeLa [8],Dose-dependent effect
Oc1ccc(/C=C/c2cc(O)cc(O)c2)cc1,inhibition,[6],Active
same,inhibition,[7],Active
same,Activity,HeLa [9],Active
C=C(C)/C=C/c1ccc2c(C(=O)C(F)(F)F)cn(C)c2c1,GI50,[1],> 500 µM
CC(=O)/C=C/c1ccc2c(C(=O)C(F)(F)F)c[nH]c2c1,GI50,[1],14 µM
C=C(C)/C=C/c1ccc2c(CO)c[nH]c2c1,GI50,[1],79 µM
